These results are taken from PubChem BioAssay (NCI).

Structures are written as SMILES.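 These data come from cells grown in 96-well plates and exposed to compound for 48 hours at five concentrations. TGI: total growth inhibition.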

Among the test systems are DU-145 prostate; OVCAR-3 ovarian; COLO 205 colon; M14 melanoma; HCT-15 colon; NCI/ADR-RES ovarian; MALME-3M melanoma; UACC-257 melanoma; ACHN renal; SNB-75 CNS; HOP-62 NSCLC; A498 renal.
Common to all, as to experiment: NCI-60 cell line screen, 48 h

For the compound `CCOC(=O)c1c(-c2ccc(Cl)cc2)c(C#N)c(=S)n(C2OC(CO)C(O)C(O)C2O)c1-c1ccccc1` (stereo unspecified), the TGI was above 100 µM in the assay on DU-145 prostate; 37.9 µM in the assay with OVCAR-3 ovarian; 80.9 µM with COLO 205 colon; 37.6 µM in the assay on M14 melanoma; 85.6 µM with HCT-15 colon; above 100 µM with NCI/ADR-RES ovarian. For the same compound, the TGI with MALME-3M melanoma was above 100 µM; with UACC-257 melanoma, 62.9 µM; with ACHN renal, above 100 µM; with SNB-75 CNS, 87.3 µM; with HOP-62 NSCLC, 36 µM.

For `CC1=C(C#N)C(=O)N(/N=C/c2ccc(Cl)cc2)C(=O)/C1=c1\o/c(=C2/C(=O)N(/N=C/c3ccc(Cl)cc3)C(=O)C(C#N)=C2C)c2nccnc12`, the TGI in the assay on A498 renal, with DU-145 prostate, in the assay with OVCAR-3 ovarian, with COLO 205 colon, with M14 melanoma and in the assay with HCT-15 colon was above 100 µM in each case. The TGI with NCI/ADR-RES ovarian is above 100 µM; in the assay on MALME-3M melanoma it was above 100 µM; in the assay with UACC-257 melanoma, above 100 µM; in the assay with ACHN renal, above 100 µM; in the assay on SNB-75 CNS, 85.3 µM.

In the case of `COC(=O)c1cccc(C)c1C1CN=NC12Cc1c(ccc(C)c1C)C2=O` (stereo unspecified), the TGI in the assay on A498 renal, in the assay on DU-145 prostate, in the assay on OVCAR-3 ovarian, with M14 melanoma, with HCT-15 colon and in the assay with NCI/ADR-RES ovarian was above 100 µM each time. Further, the TGI in the assay on MALME-3M melanoma is 78.1 µM; in the assay with UACC-257 melanoma, above 100 µM; with ACHN renal, above 100 µM; in the assay on SNB-75 CNS, above 100 µM; in the assay with HOP-62 NSCLC it was above 100 µM.

Turning to `CC(C(O)c1ccccc1)N(C)/N=N/c1nc2c([nH]1)c(=O)n(C)c(=O)n2C` (stereo unspecified), the TGI in the assay with DU-145 prostate, in the assay with OVCAR-3 ovarian, in the assay with COLO 205 colon, in the assay with M14 melanoma, with HCT-15 colon and in the assay with NCI/ADR-RES ovarian was above 100 µM in each case. For the same compound, the TGI in the assay on MALME-3M melanoma, with UACC-257 melanoma, in the assay with ACHN renal, in the assay with SNB-75 CNS and in the assay with HOP-62 NSCLC was above 100 µM in each case.

For the compound `COC(=O)CC1CN(C(=O)OCc2ccccc2)C(C)(C)O1` (stereo unspecified), the TGI in the assay with A498 renal, in the assay with DU-145 prostate, with OVCAR-3 ovarian, in the assay with COLO 205 colon, in the assay on M14 melanoma and in the assay on HCT-15 colon was above 100 µM in each case. The TGI was above 100 µM in the assay with NCI/ADR-RES ovarian; above 100 µM with MALME-3M melanoma; above 100 µM with UACC-257 melanoma; above 100 µM in the assay on ACHN renal; 75.8 µM in the assay on SNB-75 CNS.

For the compound `O=C(/C=C/c1c(O)c2ccccc2[nH]c1=O)CC(=O)C(=O)Nc1cccc(O)c1`, the TGI in the assay with A498 renal, in the assay with DU-145 prostate, in the assay on OVCAR-3 ovarian, in the assay with COLO 205 colon, in the assay with M14 melanoma and with HCT-15 colon was above 100 µM in each case. Also, the TGI with NCI/ADR-RES ovarian, with MALME-3M melanoma, with UACC-257 melanoma, in the assay with ACHN renal and in the assay on SNB-75 CNS was above 100 µM in each case.

As for `CSC1=N/C(=C\c2ccc(Cl)cc2)C(=O)N1CN1CCOCC1`, the TGI in the assay with A498 renal, in the assay on DU-145 prostate, in the assay on OVCAR-3 ovarian, in the assay with COLO 205 colon, in the assay on M14 melanoma and in the assay on HCT-15 colon was above 100 µM each time. Also, the TGI in the assay on NCI/ADR-RES ovarian, in the assay with MALME-3M melanoma, with ACHN renal, with SNB-75 CNS and in the assay on HOP-62 NSCLC was above 100 µM each time.

`CCOP(=O)(CCC(O)CNc1nc(N)nc(Cl)c1N=Nc1ccc(Cl)cc1)OCC` (stereo unspecified): the TGI is 27.7 µM in the assay with A498 renal; above 100 µM with DU-145 prostate; 25.3 µM with OVCAR-3 ovarian; 27.4 µM with COLO 205 colon; 19.6 µM with HCT-15 colon; 46.9 µM in the assay with NCI/ADR-RES ovarian. Further, the TGI in the assay on MALME-3M melanoma worked out at 21.4 µM; in the assay on UACC-257 melanoma, 29.5 µM; with ACHN renal, 31.6 µM; in the assay on SNB-75 CNS it was 49.3 µM; with HOP-62 NSCLC, 40.2 µM.

For `Cc1ccc2nc(CN3CCCCC3)cc(=O)n2c1`, the TGI in the assay with DU-145 prostate, in the assay with OVCAR-3 ovarian, in the assay on COLO 205 colon, in the assay on M14 melanoma, in the assay on HCT-15 colon and in the assay with NCI/ADR-RES ovarian was above 100 µM each time. For the same compound, the TGI with MALME-3M melanoma, with UACC-257 melanoma, in the assay on ACHN renal, with SNB-75 CNS and in the assay with HOP-62 NSCLC was above 100 µM in each case.

For the compound `CC(=O)CCC(=O)CC(O)(C(F)(F)F)C(F)(F)F`, the TGI came out at 17.6 µM in the assay with A498 renal; 37.8 µM with DU-145 prostate; 34.4 µM in the assay with COLO 205 colon; 34.9 µM in the assay on M14 melanoma; 35.4 µM with HCT-15 colon; 58.7 µM in the assay with NCI/ADR-RES ovarian. Also, the TGI with MALME-3M melanoma was found to be 32.9 µM; in the assay with UACC-257 melanoma it was 33.7 µM; in the assay with ACHN renal it was 42.6 µM; in the assay with SNB-75 CNS, 65.2 µM; with HOP-62 NSCLC, 33.6 µM.

Regarding `O=c1c2cc([N+](=O)[O-])cnc2sn1-c1ccc(Oc2ccccc2)cc1`, the TGI in the assay with DU-145 prostate, in the assay with OVCAR-3 ovarian, in the assay on COLO 205 colon, in the assay with M14 melanoma, in the assay on HCT-15 colon and in the assay with NCI/ADR-RES ovarian was above 100 µM throughout. Further, the TGI in the assay with MALME-3M melanoma was 74.9 µM; in the assay with UACC-257 melanoma it was above 100 µM; with ACHN renal, above 100 µM; in the assay with SNB-75 CNS, above 100 µM; in the assay on HOP-62 NSCLC it was above 100 µM.

For the compound `CCCN(CCC)C(=S)N/N=C/c1cccc(C)n1`, the TGI was 0.473 µM in the assay with A498 renal; above 100 µM in the assay with DU-145 prostate; 0.0435 µM with COLO 205 colon; 1.01 µM in the assay on M14 melanoma; 24.5 µM in the assay with HCT-15 colon; 1.07 µM in the assay on NCI/ADR-RES ovarian. Moreover, the TGI was 14.9 µM in the assay on MALME-3M melanoma, 0.457 µM in the assay on UACC-257 melanoma, 0.821 µM in the assay on ACHN renal and 0.991 µM in the assay with SNB-75 CNS.
